Laboratory results reported in patent publication US20210106703A1, “RADIOIMMUNOCONJUGATES IN COMBINATION WITH OTHER DRUGS AS TREATMENT AGAINST NHL” (Nordic Nanovector ASA, priority 2017, published 2021).

How the values were obtained:
RIVA cells = assay: Real Time Glo viability screen, Betalutin with PARP or cell cycle kinase inhibitors (Examples 4, 7); assay type: cell-based, human; settings: RIVA
Method: DLBCL cell lines U2932 and RIVA were maintained in RPMI 1640-GlutaMAX medium (Gibco) supplemented with 15% fetal bovine serum (Biowest) and 1% penicillin-streptomycin (Gibco) at 37° C. in a humidified atmosphere containing 5% CO2. Cells were split twice a week 1:7 and diluted 2-4 days before start of the experiment, to ensure they are in exponential growth at the beginning of the experiment.
Cells were treated in 6-well plates without shaking for 18 h with Betalutin at a final concentration of 1 μg/ml for U2932 and 0.5 μg/ml for RIVA. After treatment, PBS was added to the cells, and the cells pelleted. Cells were first resuspended in 1 ml PBS, then washed twice in PBS and finally diluted in growth medium to a final concentration of 2.5*10^6 cells/ml.
(§1) Cells density measurements were performed the day before seeding. Based on these measurements cells were seeded in 384-well plates at a density of 3000 cells per well in a culturing volume of 25 μl (resulting in start titers: 120 000 cells/ml) using a robot. For measuring viability using Real Time Glo (Promega, WI, USA), the Cell Viability Substrate and NanoLuc® Enzyme were diluted 1:500 in growth medium, and 25 μL of diluted reagents dispensed in each well by a robot. All reagents were equilibrated to 37° C. Cells were incubated with the reaction mix for 1 h at 37° C. before the first measurement of luminescence. Measurements were repeated as often as required within 72 h after adding the reagents. A Tecan SPARK 10M plate reader (Tecan, SUI) was used to measure luminescence, with the integration time set to 1 sec.
The screen was performed in 384-well plate with selected PARP inhibitors (stock solutions 10 mM in DMSO) acquired from SelleckChem (Selleckchem, TX, USA). To include no-drug controls, the drug panel (Table 6) was divided on two plates. Due to previous observations of cells growing poorly in wells located at the edges of the plates, the two outer most rows and columns were not used. As previously mentioned three different drug concentrations were used in the screen, 10 nM and 1 μM for U2932 and 10 and 100 nM for RIVA.
Candidate hits were identified using the Bliss Independence test for synergy. The effect of each drug alone at each concentration was calculated as the fraction of dead cells as compared to control cells Fa=(1−(RLUdrug/avgRLUcontrol), a similar calculation was performed for the effect of Betalutin alone Fb=(1−(avgRLUBetalutin/avgRLUcontrol). Through the following equation we found the expected additive effect of the combination of drug+Betalutin: Expected effect (E)Fab=(Fa+Fb−Fa*Fb). We subtracted this expected effect from the measured effect (M)Fab=(1−(RLUDrug+Betalutin/avgRLUcontrol) to get a value (Diff)Fab representing how the measured effect differed from the expected additive effect of the combination. This value was normalized to the survival fraction of drug alone: (Diff)Fab#=(Diff)Fab/(1−Fa). Furthermore, to get a measure of how big the well-to-well variation was, we calculated the standard deviation for the effect of Betalutin alone in the 48 control wells on each plate: (STDEV)Fb=(RLUBetalutin/RLUcontrol)−(averageRLUBetalutin/averageRLUcontrol). Drugs with a value (Diff)Fab#two times higher than the standard deviation of Betalutin treated controls, (STDEV)Fb, were scored as hits.
as §1, with “Measurements were repeated as often as required within 72 h after adding the reagents. A Tecan SPARK 10M plate reader (Tecan, SUI) was used to measure luminescence, with the integration time set to 1 sec.” left out

OCI-Ly8 tumor xenografts = assay: Treatment of mice with tumor xenografts

`Nc1nc(Nc2ccc(S(N)(=O)=O)cc2)nn1C(=O)c1c(F)cccc1F` [JNJ-7706621] was tested, and the “Growth inhibitory effect, drug alone” value (RIVA cells; drug 100 nM) was “no growth inhibitory effect”.

In the case of `C=CCn1c(=O)c2cnc(Nc3ccc(N4CCN(C)CC4)cc3)nc2n1-c1cccc(C(C)(C)O)n1` [MK-1775], the “Tumor growth delay versus ^177Lu-lilotomab alone” value (OCI-Ly8 tumor xenografts; 250 MBq/kg ^177Lu-lilotomab + MK-1775, p=0.05) is reported as “significantly better”, the “Efficacy of combination versus 500 MBq/kg ^177Lu-lilotomab alone” value (OCI-Ly8 tumor xenografts; 250 MBq/kg ^177Lu-lilotomab + MK-1775, p=0.7070) is reported as “as efficient as 500 MBq/kg” and the “Therapeutic efficacy compared with control” value (OCI-Ly8 tumor xenografts; single agent) is reported as “no therapeutic efficacy”.

B1: Lutetium-177 [^177Lu]-lilotomab satetraxetan (conjugate, chains of the INN, looked up)
VH: EIQLQQSGPELVKPGASVKVSCKASGYSFTDYNMYWVKQSHGKSLEWIGYIDPYNGDTTYNQKFKGKATLTVDKSSSTAFIHLNSLTSEDSAVYYCARSPYGHYAMDYWGQGTSVTVSS
VL: DIVMTQSHKLLSTSVGDRVSITCKASQDVSTAVDWYQQKPGQSPKLLINWASTRHTGVPDRFTGSGSGTDYTLTISSMQAEDLALYYCRQHYSTPFTFGSGTKLEIK
modifications: 177Lu satetraxetan chelator conjugate
For B1, the Median survival (OCI-Ly8 tumor xenografts; 250 MBq/kg, p=0.0062) was “significantly improved”, the Tumor growth delay (OCI-Ly8 tumor xenografts; 250 MBq/kg, p=0.015) was “significantly improved” and the “Proliferation relative to non-treated cells” value (RIVA cells; 0.5 μg/ml [600 MBq/mg], days 4-6) was “more than 40%”. The “Inhibition of proliferation capacity, single treatment” value (RIVA cells; Betalutin 0.5 μg/ml, days 5 and 6) was “about 50%”.
